Assay results as given in paper PMC5732813, “Novel piplartine-containing ruthenium complexes: synthesis, cell growth inhibition, apoptosis induction and ROS production on HCT116 cells” (Oncotarget, 2017).
Where “and” joins values, the source holds several entries; their conditions need not be identical. Equal values may be shown once.

Columns and labels:
Format in all cases: cell-based
[1] = test system: HCT116 (human colon carcinoma); assay: Cytotoxic activity, alamar blue assay, HCT116
Source text: (§1) HCT116 (human colon carcinoma), HepG2 (human hepatocellular carcinoma), HSC-3 (human oral squamous cell carcinoma), SCC-4 (human oral squamous cell carcinoma), SCC-9 (human oral squamous cell carcinoma), HL-60 (human promyelocytic leukemia), K-562 (human chronic myelogenous leukemia), B16-F10 (murine melanoma), MRC-5 (human lung fibroblast), WT SV40 MEF (wild-type immortalized mouse embryonic fibroblast) and BAD KO SV40 MEF (BAD gene knockout immortalized mouse embryonic fibroblast) cell lines were obtained from the American Type Culture Collection (ATCC, Manassas, VA, USA) and cultured in RPMI-1640 medium (Gibco-BRL, Gaithersburg, MD, USA) with 10% fetal bovine serum (Life, Carlsbad, CA, USA), 2 mM L-glutamine (Vetec Química Fina, Duque de Caxias, RJ, Brazil) and 50 μg/mL gentamycin (Life, Carlsbad, CA, USA). Adherent cells were collected by treatment with 0.25% trypsin EDTA solution (Gibco-BRL, Gaithersburg, MD, USA). All cell lines were cultured in flasks at 37°C in 5% CO2 and sub-cultured every 3-4 days to maintain exponential growth.
(§2) Cell viability was quantified using the alamar blue assay, according to Ahmed et al.. Cells were inserted in 96-well plates for all experiments (7 x 10^4 cells/mL for adherent cells or 3 x 10^5 cells/mL for suspended cells in 100 μL of medium). […] Negative controls received the vehicle that was used for diluting the compounds tested.

[2] = test system: HSC-3 (human oral squamous cell carcinoma); assay: Cytotoxic activity, alamar blue assay, HSC-3
Source text: as §1, §2

[3] = test system: HL-60 (human promyelocytic leukemia); assay: Cytotoxic activity, alamar blue assay, HL-60
Source text: as §1, §2

[4] = test system: PBMC (human peripheral blood mononuclear cells); assay: Cytotoxic activity, alamar blue assay, PBMC non-cancer cells; details: Homo sapiens, PBMC, 72 h
Procedure: PBMCs were washed and resuspended at a concentration of 3 x 10^5 cells/mL in RPMI 1640 medium with 20% fetal bovine serum, 2 mM glutamine and 50 μg/mL gentamycin at 37°C with 5% CO2. […] The Research Ethics Committee of the Oswaldo Cruz Foundation (Salvador, Bahia, Brazil) approved the experimental protocol (# 031019/2013). All participants signed a written informed consent to participate in the study.
as §2

[5] = test system: HCT116 cells; assay: Gene expression analysis by qPCR array (TaqMan Array Human Molecular Mechanisms of Cancer); details: HCT116, 12 h, DOX 1 μM, PL 10 μM, 1 2.5 μM, 2 5 μM, negative control RQ = 1.0
In short: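 HCT116 cells (7x10^4 cells/mL) were exposed to the complexes for 12 h before total RNA isolation and reverse transcription. Expression was profiled by TaqMan qPCR array with 40 cycles (3 s 95 °C, 30 s 60 °C), normalized to GAPDH, 18S and HPRT1.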

COc1cc(/C=C/C(=O)N2CCC=CC2=O)cc(OC)c1OC [Piplartine]
Selectivity index (SI) ([1]; SI = IC50[MRC-5]/IC50[HCT116]): 2.7
Selectivity index (SI) ([1]; SI = IC50[PBMC]/IC50[HCT116]): 5.3
Selectivity index (SI) ([2]; SI = IC50[MRC-5]/IC50[HSC-3]): 2.3
Selectivity index (SI) ([2]; SI = IC50[PBMC]/IC50[HSC-3]): 4.6
Selectivity index (SI) ([3]; SI = IC50[MRC-5]/IC50[HL-60]): 1.3
Selectivity index (SI) ([3]; SI = IC50[PBMC]/IC50[HL-60]): 2.6
IC50 [4]: 34.2 µM
RQ ABL1 [5]: 1.144
RQ AKT1 [5]: 1.285
RQ AKT2 [5]: 1.068
RQ APC [5]: 1.236
RQ BAX [5]: 2.160
RQ BCAR1 [5]: 0.705
RQ BCL2L1 [5]: 0.822
RQ BCL2L11 [5]: 1.536
RQ BID [5]: 0.528
RQ BRAF [5]: 1.512
RQ CASP8 [5]: 0.915
RQ CASP9 [5]: 1.065
RQ CCND3 [5]: 1.144
RQ CCNE1 [5]: 1.418
RQ CDC42 [5]: 2.542
RQ CDK2 [5]: 0.722
RQ CDK4 [5]: 0.873
RQ CDKN1A [5]: 2.847
RQ CDKN1B [5]: 1.545
RQ CRK [5]: 0.381
RQ CTNNB1 [5]: 1.026
RQ DVL1 [5]: 0.913
RQ E2F1 [5]: 0.764
RQ ELK1 [5]: 0.625
RQ ERBB2 [5]: 1.273
RQ FAS [5]: 1.371
RQ FGF2 [5]: 0.854
RQ GRB2 [5]: 1.219
RQ GSK3B [5]: 1.249
RQ GUSB [5]: 5.2
RQ HRAS [5]: 0.928
RQ ITGB1 [5]: 0.784
RQ KRAS [5]: 0.133
RQ MAPK1 [5]: 1.098
RQ MAPK8 [5]: 0.887
RQ MAPK14 [5]: 1.009
RQ MDM2 [5]: 0.901
RQ MYC [5]: 0.271
RQ NFKB1 [5]: 0.870
RQ NFKB2 [5]: 0.818
RQ NRAS [5]: 0.600
RQ PIK3CA [5]: 0.910
RQ RB1 [5]: 1.314
RQ RELA [5]: 1.240
RQ RHOA [5]: 0.979
RQ SRC [5]: 1.076
RQ TCF3 [5]: 0.774
RQ TGFB1 [5]: 0.947
RQ TGFBR1 [5]: 0.545
RQ VEGFA [5]: 1.245
RQ BCL2 ([5]; listed as PL): 1.1 and 1.049
RQ CCND1 ([5]; listed as PL): 0.7 and 0.669
RQ CDH1 ([5]; listed as PL): 2.5 and 2.494
RQ CDKN2A ([5]; listed as PL): 1.6 and 1.575
RQ CYCS ([5]; listed as PL): 1.0 and 0.954
RQ EGFR ([5]; listed as PL): 1.2 and 1.173
RQ FADD ([5]; listed as PL): 0.4 and 0.369
RQ FN1 ([5]; listed as PL): 2.0 and 1.952
RQ FOS ([5]; listed as PL): 31.0 and 30.985
RQ FYN ([5]; listed as PL): 1.7 and 1.675
RQ FZD1 ([5]; listed as PL): 1.0 and 0.953
RQ IGF1R ([5]; listed as PL): 2.1 and 2.082
RQ ITGA2B ([5]; listed as PL): 3.0 and 2.963
RQ ITGAV ([5]; listed as PL): 1.0 and 0.993
RQ JUN ([5]; listed as PL): 3.8 and 3.837
RQ KDR ([5]; listed as PL): 8.3 and 8.270
RQ MAP2K1 ([5]; listed as PL): 0.8 and 0.759
RQ MAP3K5 ([5]; listed as PL): 0.6 and 0.609
RQ MAPK3 ([5]; listed as PL): 1.7 and 1.726
RQ MAX ([5]; listed as PL): 3.1 and 3.051
RQ NFKBIA ([5]; listed as PL): 2.0 and 1.989
RQ PIK3R1 ([5]; listed as PL): 2.4 and 2.352
RQ PTEN ([5]; listed as PL): 0.5 and 0.501
RQ PTK2 ([5]; listed as PL): 0.6 and 0.616
RQ PTK2B ([5]; listed as PL): 2.3 and 2.265
RQ RAC1 ([5]; listed as PL): 0.7 and 0.731
RQ RAF1 ([5]; listed as PL): 0.6 and 0.574
RQ SHC1 ([5]; listed as PL): 0.2 and 0.243
RQ SMAD4 ([5]; listed as PL): 0.9 and 0.942
RQ SOS1 ([5]; listed as PL): 0.9 and 0.851
RQ SPP1 ([5]; listed as PL): 1.3 and 1.338
RQ TGFBR2 ([5]; listed as PL): 1.2 and 1.177
RQ TP53 ([5]; listed as PL): 1.2 and 1.182
